Laboratory results reported in patent US8722676B2, “Bicyclic piperazine compounds” (Genentech, Inc., priority 2011, dated 2014).

Tested on: production of CD69 by B lymphocytes in human whole blood activated with goat F(ab')2 anti-human IgM
Assay: CD69 Whole Blood Assay (CD69 Hu Blood FACS)
Type: cell-based
Conditions: anti-IgM stimulated, 20 hour incubation, CD69+ of CD20+ cells
Excerpt: A CD69 Whole Blood Assay can be conducted on Formula I compounds to determine the ability of compounds to inhibit the production of CD69 by B lymphocytes in human whole blood activated by crosslinking surface IgM with goat F(ab′)2 anti-human IgM (Example 907). CD69 is a type II C-type lectin involved in lymphocyte migration and cytokine secretion. CD69 expression represents one of the earliest available indicators of leukocyte activation and its rapid induction occurs through transcriptional activation (Vazquez et al (2009) Jour. of Immunology Published Oct. 19, 2009, doi:10.4049/jimmunol.0900839). Concentration-dependent inhibition of antigen receptor stimulation by selective Btk inhibitors induces cell surface expression of the lymphocyte activation marker CD69 (Honigberg et al (2010) Proc. Natl. Acad. Sci. 107(29):13075-13080). Thus, CD69 inhibition by selective Btk inhibitors may be correlated with therapeutic efficacy of certain B-cell disorders.
Human blood is obtained from healthy volunteers, with the following restrictions: 1 week drug-free, non-smokers. Blood (approximately 20 mls to test 8 compounds) is collected by venipuncture into Vacutainer® (Becton, Dickinson and Co.) tubes with sodium heparin.
Solutions of Formula I compounds at 10 mM in DMSO are diluted 1:10 in 100% DMSO, then are diluted by three-fold serial dilutions in 100% DMSO for a ten point dose-response curve. The compounds are further diluted 1:10 in PBS and then an aliquot of 5.5 μl of each compound is added in duplicate to a 2 ml 96-well plate; 5.5 μl of 10% DMSO in PBS is added as control and no-stimulus wells. Human whole blood—HWB (100 μl) is added to each well. After mixing the plates are incubated at 37° C., 5% CO2, 100% humidity for 30 minutes. Goat F(ab′)2 anti-human IgM (10 μl of a 500 μg/ml solution, 50 μg/ml final) is added to each well (except the no-stimulus wells) with mixing and the plates are incubated for an additional 20 hours. At the end of the 20 hour incubation, samples are incubated with fluorescent labeled antibodies for 30 minutes, at 37° C., 5% CO2, 100% humidity. Include induced control, unstained and single stains for compensation adjustments and initial voltage settings. Samples are then lysed with PharM Lyse™ (BD Biosciences Pharmingen) according to the manufacturer's instructions. Samples are then transferred to a 96 well plate suitable to be run on the BD Biosciences HTS 96 well system on the LSRII machine. Data acquired and Mean Fluorescence Intensity values were obtained using BD Biosciences DIVA Software. Results are initially analyzed by FACS analysis software (Flow Jo).

Compound | CD69 Hu Blood FACS IC70 (Table 2) | CD69 Hu Blood FACS IC70 (Table 1)
CN1CCn2nc(Nc3cc(-c4ccnc(N5CCn6c(cc7c6CCCC7)C5=O)c4CO)nn4ccnc34)cc2C1 [Compound 124, 2-[3-(hydroxymethyl)-4-[8-[(5-methyl-6,7-dihydro-4H-pyrazolo[1,5-a]pyrazin-2-yl)amino]imidazo[1,2-b]pyridazin-6-yl]-2-pyridyl]-3,4,6,7,8,9-hexahydropyrazino[1,2-a]indol-1-one] | 333 nM | 
O=C1c2cc3c(n2CCN1c1nccc(-c2cc(Nc4ccc(N5CCN(C6COC6)CC5)cn4)c4nccn4c2)c1CO)CCCC3 [Compound 121, 2-[3-(hydroxymethyl)-4-[8-[[5-[4-(oxetan-3-yl)piperazin-1-yl]-2-pyridyl]amino]imidazo[1,2-a]pyridin-6-yl]-2-pyridyl]-3,4,6,7,8,9-hexahydropyrazino[1,2-a]indol-1-one] | 279 nM | 
O=C1c2cc3c(n2CCN1c1cc(F)cc(-c2nc(Nc4ccc(N5CCN(C6COC6)CC5)cc4)c4nc[nH]c4n2)c1CO)CCCC3 [Compound 117, 2-[5-fluoro-2-(hydroxymethyl)-3-[6-[4-[4-(oxetan-3-yl)piperazin-1-yl]anilino]-9H-purin-2-yl]phenyl]-3,4,6,7,8,9-hexahydropyrazino[1,2-a]indol-1-one] | 812 nM | 
CN1CCN(c2ccc(Nc3cc(-c4cc(F)cc(N5CCc6c(sc7c6CCCC7)C5=O)c4CO)cn4ccnc34)nc2)CC1 [Compound 103, 5-[5-Fluoro-2-(hydroxymethyl)-3-{(8-(5-(4-methylpiperazin-1-yl)pyridine-2-ylamino)imidazo[1,2-a]pyridin-6-yl)}phenyl]-8-thia-5-azatricyclo[7.4.0.0^2,7]trideca-1(9),2(7)-dien-6-one] |  | 319 nM
CC1(C)Cc2sc3c(c2C1)CCN(c1cc(F)cc(-c2cc(Nc4ccc(N5CCN(C6COC6)CC5)cn4)c4nccn4n2)c1CO)C3=O [Compound 113, 10-[5-Fluoro-2-(hydroxymethyl)-3-(8-(5-(4-(oxetan-3-yl)piperazin-1-yl)pyridine-2-ylamino)imidazo[1,2-b]pyridazin-6-yl)phenyl]-4,4-dimethyl-7-thia-10-azatricyclo[6.4.0.0^2,6]dodeca-1(8),2(6)-dien-9-one] |  | 12 nM
O=C1c2cc3c(n2CCN1c1cc(F)cc(-c2cc(Nc4ccc(N5CCN(C6COC6)CC5)cn4)c4nc[nH]c4c2)c1CO)CCCC3 [Compound 116, 2-[5-fluoro-2-(hydroxymethyl)-3-[7-[[5-[4-(oxetan-3-yl)piperazin-1-yl]-2-pyridyl]amino]-3H-benzimidazol-5-yl]phenyl]-3,4,6,7,8,9-hexahydropyrazino[1,2-a]indol-1-one] | 1300 nM | 
CC1(C)Cc2cc3n(c2C1)CCN(c1cc(F)cc(-c2nc(Nc4ccc(N5CCN(C6COC6)CC5)cc4)c4nc[nH]c4n2)c1CO)C3=O [Compound 123, 3-[5-fluoro-2-(hydroxymethyl)-3-[6-[4-[4-(oxetan-3-yl)piperazin-1-yl]anilino]-9H-purin-2-yl]phenyl]-7,7-dimethyl-1,2,6,8-tetrahydrocyclopenta[3,4]pyrrolo[3,5-b]pyrazin-4-one] | 256 nM | 
Cn1cnc2c(Nc3ccc(N4CCN(C5COC5)CC4)cn3)cc(-c3cc(F)cc(N4CCn5c(cc6c5CCCC6)C4=O)c3CO)cc21 [Compound 109, 2-(5-Fluoro-2-(hydroxymethyl)-3-(3-methyl-7-(5-(4-(oxetan-3-yl)piperazin-1-yl)pyridin-2-ylamino)-3H-benzo[d]imidazol-5-yl)phenyl)-3,4,6,7,8,9-hexahydropyrazino[1,2-a]indol-1(2H)-one] |  | 1300 nM
CN1CCN(c2ccc(Nc3nc(-c4cc(F)cc(N5CCn6c(cc7c6CCCC7)C5=O)c4CO)cn4ccnc34)nc2)CC1 [Compound 106, 2-(5-Fluoro-2-(hydroxymethyl)-3-(8-(5-(4-methylpiperazin-1-yl)pyridin-2-ylamino)imidazo[1,2-a]pyrazin-6-yl)phenyl)-3,4,6,7,8,9-hexahydropyrazino[1,2-a]indol-1(2H)-one] |  | 814 nM
O=C1c2cc3c(n2CCN1c1nccc(-c2cc(Nc4ccc(N5CCN(C6COC6)CC5)cn4)c4nccn4n2)c1CO)CCCC3 [Compound 114, 2-(3-(Hydroxymethyl)-4-(8-(5-(4-(oxetan-3-yl)piperazin-1-yl)pyridin-2-ylamino)imidazo[1,2-b]pyridazin-6-yl)pyridin-2-yl)-3,4,6,7,8,9-hexahydropyrazino[1,2-a]indol-1(2H)-one] |  | 118 nM
O=C1c2sc3c(c2CCN1c1cc(F)cc(-c2nc(Nc4ccc(N5CCN(C6COC6)CC5)cc4)c4nc[nH]c4n2)c1CO)CCCC3 [Compound 119, 2-[5-fluoro-2-(hydroxymethyl)-3-[6-[4-[4-(oxetan-3-yl)piperazin-1-yl]anilino]-9H-purin-2-yl]phenyl]-3,4,5,6,7,8-hexahydrobenzothiopheno[2,3-c]pyridin-1-one] | 727 nM | 
O=C1c2cc3c(n2CCN1c1nccc(-c2cc(Nc4ccc(N5CCN(C6COC6)CC5)cn4)c4ncnn4c2)c1CO)CCCC3 [Compound 122, 2-[3-(hydroxymethyl)-4-[8-[[5-[4-(oxetan-3-yl)piperazin-1-yl]-2-pyridyl]amino]-[1,2,4]triazolo[1,5-a]pyridin-6-yl]-2-pyridyl]-3,4,6,7,8,9-hexahydropyrazino[1,2-a]indol-1-one] | 208 nM | 
O=C1c2sc3c(c2CCN1c1cc(F)cc(-c2cc(Nc4ccc(N5CCN(C6COC6)CC5)cn4)c4nccn4n2)c1CO)CCCC3 [Compound 111, 5-[5-Fluoro-2-(hydroxymethyl)-3-(8-(5-(4-(oxetan-3-yl)piperazin-1-yl)pyridin-2-ylamino)imidazo[1,2-b]pyridazin-6-yl)phenyl]-8-thia-5-azatricyclo[7.4.0.0^2,7]trideca-1(9),2(7)-dien-6-one] |  | 313 nM
O=c1c2sc3c(c2cnn1-c1cc(F)cc(-c2cc(Nc4ccc(N5CCN(C6COC6)CC5)cn4)c4nccn4n2)c1CO)CCCC3 [Compound 112, 5-[5-Fluoro-2-(hydroxymethyl)-3-(8-(5-(4-(oxetan-3-yl)piperazin-1-yl)pyridin-2-ylamino)imidazo[1,2-b]pyridazin-6-yl)phenyl]-8-thia-4,5-diazatricyclo-[7.4.0.0^2,7]trideca-1(9),2(7),3-trien-6-one] |  | 126 nM
O=C1c2cc3c(n2CCN1c1cc(F)cc(-c2cc(Nc4ccc(N5CCN(C6COC6)CC5)cn4)c4ncnn4c2)c1CO)CCCC3 [Compound 108, 2-(5-Fluoro-2-(hydroxymethyl)-3-(8-(5-(4-(oxetan-3-yl)piperazin-1-yl)pyridin-2-ylamino)-[1,2,4]triazolo[1,5-a]pyridin-6-yl)phenyl)-3,4,6,7,8,9-hexahydropyrazino[1,2-a]indol-1(2H)-one] |  | 58 nM
O=C1c2cc3c(n2CCN1c1cc(F)cc(-c2cn4ccnc4c(Nc4ccc(N5CCN(C6COC6)CC5)cn4)n2)c1CO)CCCC3 [Compound 107, 2-(5-Fluoro-2-(hydroxymethyl)-3-(8-(5-(4-(oxetan-3-yl)piperazin-1-yl)pyridin-2-ylamino)imidazo[1,2-a]pyrazin-6-yl)phenyl)-3,4,6,7,8,9-hexahydro-pyrazino[1,2-a]indol-1(2H)-one] |  | 939 nM
CN1CCN(c2ccc(Nc3cc(-c4cc(F)cc(N5CCn6c(cc7c6CCCC7)C5=O)c4CO)nn4ccnc34)nc2)CC1 [Compound 104, 2-(5-Fluoro-2-(hydroxymethyl)-3-(8-(5-(4-methylpiperazin-1-yl)pyridin-2-ylamino)imidazo[1,2-b]pyridazin-6-yl)phenyl)-3,4,6,7,8,9-hexahydropyrazino[1,2-a]indol-1(2H)-one] |  | 96 nM
CC1(C)Cc2cc3n(c2C1)CCN(c1cc(F)cc(-c2cc(Nc4ccc(N5CCN(C6COC6)CC5)cn4)c4nccn4n2)c1CO)C3=O [Compound 110, 10-[5-Fluoro-2-(hydroxymethyl)-3-(8-(5-(4-(oxetan-3-yl)piperazin-1-yl)pyridin-2-ylamino)imidazo[1,2-b]pyridazin-6-yl)phenyl]-4,4-dimethyl-1,10-diazatricyclo[6.4.0.0^2,6]dodeca-2(6),7-dien-9-one] |  | 15 nM
O=C1c2cc3c(n2CCN1c1cc(F)cc(-c2cc(Nc4ccc(N5CCN(C6COC6)CC5)cn4)c4nccn4c2)c1CO)CCCC3 [Compound 102, 2-(5-Fluoro-2-(hydroxymethyl)-3-(8-(5-(4-(oxetan-3-yl)piperazine-1-yl)pyridine-2-ylamino)imidazo[1,2-a]pyridin-6-yl)phenyl)-3,4,6,7,8,9-hexahydro-pyrazino[1,2-a]indol-1(2H)-one] |  | 11 nM
